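All cell lines were grown in 96-well plates and treated with compound for 48 hours. TGI: total growth inhibition.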
What was measured:
Assay in all cases: NCI-60 cell line screen, 48 h
786-0 renal = test system: 786-0 renal
A549 NSCLC = test system: A549 NSCLC
BT-549 breast = test system: BT-549 breast
CAKI-1 renal = test system: CAKI-1 renal
CCRF-CEM leukemia = test system: CCRF-CEM leukemia
HCT-116 colon = test system: HCT-116 colon
HS 578T breast = test system: HS 578T breast
HT29 colon = test system: HT29 colon
K-562 leukemia = test system: K-562 leukemia
MCF7 breast = test system: MCF7 breast
OVCAR-3 ovarian = test system: OVCAR-3 ovarian
PC-3 prostate = test system: PC-3 prostate
SF-268 CNS = test system: SF-268 CNS
SNB-19 CNS = test system: SNB-19 CNS
SW-620 colon = test system: SW-620 colon
TK-10 renal = test system: TK-10 renal
HCC-2998 colon = test system: HCC-2998 colon

| SMILES | TGI (786-0 renal) [µM] | TGI (A549 NSCLC) [µM] | TGI (BT-549 breast) [µM] | TGI (CAKI-1 renal) [µM] | TGI (CCRF-CEM leukemia) [µM] | TGI (HCT-116 colon) [µM] | TGI (HS 578T breast) [µM] | TGI (HT29 colon) [µM] | TGI (K-562 leukemia) [µM] | TGI (MCF7 breast) [µM] | TGI (OVCAR-3 ovarian) [µM] | TGI (PC-3 prostate) [µM] | TGI (SF-268 CNS) [µM] | TGI (SNB-19 CNS) [µM] | TGI (SW-620 colon) [µM] | TGI (TK-10 renal) [µM] | TGI (HCC-2998 colon) [µM] |
| --- | --- | --- | --- | --- | --- | --- | --- | --- | --- | --- | --- | --- | --- | --- | --- | --- | --- |
| Nc1nc(Cl)cc(NCC2(CO)CCCCC2)n1 | > 100 | > 100 | > 100 | > 100 | > 100 | > 100 | > 100 | > 100 | > 100 | > 100 | > 100 | > 100 | > 100 | > 100 | > 100 | > 100 |  |
| CN(C(=O)[C@H](NC(=O)OCc1ccccc1)c1ccccc1)C1CCCCC1N1CCCC1 (some centres not stated) | > 100 | > 100 | > 100 | > 100 | > 100 | > 100 | 77.2 | > 100 | > 100 | > 100 | > 100 | > 100 | > 100 | > 100 | > 100 | > 100 |  |
| Cc1nc2cn3c(c2c(=O)[nH]1)CCCCC3 | > 100 |  | > 100 | > 100 | > 100 | > 100 | > 100 | > 100 | > 100 | > 100 |  | > 100 | > 100 | > 100 | > 100 | > 100 | > 100 |
| COC(CNC(=O)CNC(=O)c1ccc(C(F)(F)F)cc1)OC | > 100 | > 100 | > 100 | > 100 | > 100 | > 100 | > 100 | > 100 | > 100 | > 100 |  | > 100 | > 100 | > 100 | > 100 | > 100 |  |
| COc1ccc(-c2nc(-c3ccc(OC)cc3)n(-c3ccccc3)n2)cc1 | > 100 | > 100 | > 100 | > 100 | > 100 | > 100 | > 100 | > 100 |  | > 100 | > 100 | > 100 | > 100 | > 100 | > 100 | > 100 |  |

From PubChem BioAssay (NCI)
